The nature of data set [1]: acute toxicity (LD50 table, level of toxicity). As to conditions: in vivo. The text has this:
This low level of toxicity appears from the following table: […]

A short description of data set [2]: anti-inflammatory and analgetic activities, general statement. It is filed as in vivo. As to conditions: test not specified.
Data set [3] has as its system Rhine virus. Nature of the data set: activity against Rhine virus.
The conditions of data set [4]: known compound, background, cited from earlier work.
Setting [5] is: route of administration: par(enteral).
Setting [6] is: po, route of administration: or(al).

As usually defined, the LD50 is the dose expected to kill half of the subjects tested. Low values mean a more toxic substance, high ones a less toxic substance.

SMILES strings stand for the structures. Bounds are passed on as bounds.

Turning to `O=C(O)CON=Cc1ccc(Cl)cc1` [C1 H H H CH2 OH, [(4-chlorobenzylidene amino)oxy] acetic acid], the LD50 at 24 h in data set [1] (setting [5]) is > 320 mg/kg.
Turning to `COC(=O)CON=C(C)c1ccc(Cl)cc1` [C1 H H CH3 CH2 OCH3, [(α-methyl-4-chlorobenzylidene amino)oxy] acetic acid methyl ester], in data set [1] (setting [6]), the 50% lethal dose (LD50) at 24 h is > 1000 mg/kg and the median lethal dose (LD50) at 48 h is > 1000 mg/kg. In data set [2], the activities entry was “particularly strong activities”.
Regarding `CC(=NOCC(=O)O)c1ccc(C)cc1` [CH3 H H CH3 CH2 OH], the LD50 at 24 h in data set [1] (setting [5]) is > 320 mg/kg.
For `CC(=NOCC(=O)O)c1ccc(S(C)(=O)=O)cc1` [CH3 SO2 H H CH3 CH2 OH], the LD50 at 24 h in data set [1] (setting [5]) is > 320 mg/kg.
As for `CC(=NOCC(=O)O)c1ccc(Br)cc1` [Br H H CH3 CH2 OH], the LD50 at 24 h in data set [1] (setting [5]) was > 100 mg/kg.
For the molecule `CC(=NOCC(=O)O)c1ccc(Cl)c(Cl)c1` [C1 C1 H CH3 CH2 OH, [(α-methyl-3,4-dichlorobenzylene amino)oxy] acetic acid], the 50% lethal dose (LD50) at 24 h in data set [1] (setting [5]) is > 320 mg/kg.
Regarding `CC(=NOCC(=O)OCc1ccccc1)c1ccc(Cl)cc1` [C1 H H CH3 CH2 OCH2 C6 H5], the LD50 at 24 h in data set [1] (setting [6]) is > 1000 mg/kg.
Turning to `CC(=NOCC(N)=O)c1ccc(Cl)cc1` [C1 H H CH3 CH2 NH2, [(α-methyl-4-chlorobenzylidene amino)oxy]acetamide], in data set [1] (setting [6]), the LD50 at 24 h was > 1000 mg/kg and the median lethal dose (LD50) at 48 h was > 1000 mg/kg. For the same molecule, the activities result in data set [2] was “particularly strong activities”. For the same molecule, the “activity against Rhine virus” value in data set [3] was “interesting activity”.
As to `CC(=NOCCC(=O)O)c1ccc(Cl)cc1` [C1 H H CH3 (CH2)2 OH, 3-[(α-methyl-4-chlorobenzylideneamino)oxy] propionic acid], in data set [1] (setting [5]), the LD50 at 24 h was > 100 mg/kg.
In the case of `CCCCNC(=O)CON=C(C)c1ccc(Cl)cc1` [N-n.butyl-[(α-methyl-4-chlorobenzylideneamino)oxy] acetamide], the “activity against Rhine virus” value in data set [3] is on record as “interesting activity”.
As for `CC(=NOCC(=O)N(C)C)c1ccc(Cl)cc1` [C1 H H CH3 CH2 (CH3)2 N, [(α-methyl-4-chlorobenzylidene amino)oxy]-N,N-dimethyl acetamide], the 50% lethal dose (LD50) at 24 h in data set [1] (setting [6]) was > 1000 mg/kg.
Turning to `CC(=NOCC(=O)O)c1ccc(Cl)cc1Cl` [C1 H C1 CH3 CH2 OH, [(α-methyl-2,4-dichlorobenzylidene amino)oxy] acetic acid], the median lethal dose (LD50) at 24 h in data set [1] (setting [5]) was > 320 mg/kg. For the same molecule, the “activity against Rhine virus” value in data set [3] was “interesting activity”.
On to `CNC(=O)CON=C(C)c1ccc(Cl)cc1` [C1 H H CH3 CH2 NHCH3, [(α-methyl-4-chlorobenzylidene amino)oxy]-N-methyl acetamide], for which the LD50 at 24 h in data set [1] (setting [6]) is > 1000 mg/kg.
For the molecule `CCCCCCCCOC(=O)CON=C(C)c1ccc(Cl)cc1` [C1 H H CH3 CH2 OnC8 H17], the LD50 at 24 h in data set [1] (setting [6]) is > 1000 mg/kg.
On to `CC(=NOCC(=O)OC(C)C)c1ccc(Cl)cc1` [C1 H H CH3 CH2 OCH(CH3)2], for which, in data set [1] (setting [6]), the LD50 at 24 h is > 1000 mg/kg.
Take `CC(=NOCC(=O)O)c1ccc(Cl)cc1` [C1 H H CH3 CH2 OH, [(α-methyl-4-chlorobenzylidene amino)oxy] acetic acid]: in data set [1] (setting [6]), the LD50 at 24 h is > 1000 mg/kg and the median lethal dose (LD50) at 48 h was > 1000 mg/kg. The activities result in data set [2] is recorded as “particularly strong activities”.
For `CC(=NOCC(=O)O)c1cccc(Cl)c1` [H C1 H CH3 CH2 OH], the 50% lethal dose (LD50) at 24 h in data set [1] (setting [5]) is > 320 mg/kg.
Turning to `CC(=NOCCC(N)=O)c1ccc(Cl)cc1` [C1 H H CH3 (CH2)2 NH2, 3-[(α-methyl-4-chlorobenzylideneamino)oxy] propionamide], the LD50 at 24 h in data set [1] (setting [6]) is > 1000 mg/kg.
On to `CC(=NOCCCC(=O)O)c1ccc(Cl)cc1` [C1 H H CH3 (CH2)3 OH, 4-[(α-methyl-4-chlorobenzylideneamino)oxy] butyric acid], for which the LD50 at 24 h in data set [1] (setting [5]) was > 320 mg/kg. Moreover, the “activity against Rhine virus” value in data set [3] is “interesting activity”.
On to `CC(=NOCC(=O)NN)c1ccc(Cl)cc1` [C1 H H CH3 CH2 NHNH2, [(α-methyl-4-chlorobenzylidene amino)oxy] acet hydrazide], for which, in data set [1] (setting [6]), the median lethal dose (LD50) at 24 h is ~1000 mg/kg. Also, in data set [3], the “activity against Rhine virus” value is given as “interesting activity”.
With `CC(=NOCC(N)=O)c1ccc(Cl)c(Cl)c1` [C1 C1 H CH3 CH2 NH2, [(α-methyl-3,4-dichlorobenzylidene amino)oxy] acetamide], in data set [1] (setting [6]), the LD50 at 24 h was ~1000 mg/kg. Further, the “activity against Rhine virus” value in data set [3] is “interesting activity”.
`COc1ccc2c(c1)c(CC(=O)O)cn2-c1ccc(Cl)cc1` [(N-p.chlorophenyl-5-methoxy indolyl-3) acetic acid]: in data set [4], the potency entry was “highly potent” and the toxicity level result is listed as “high toxicity level”. Also, the therapeutic level entry in data set [4] (due to high toxicity) was “quite low”.

The values are drawn from patent US4196216A, “Novel benzylidene amini-oxyalkyl carboxylic acids and carboxylic acid derivatives” (U.S. Philips Corporation, priority 1968, dated 1980).
